Assay: in vitro
Details: human, hela cells, % viability

Compound	viability at 28.5 h, 10 µM [%]
CC(C)CNC(=S)NNC(=O)CC(C)O (stereo not drawn) [CBK266921]	93.9
CCc1nc2ccc(C(=O)N(C)CCN(C)C)cn2c1N(CC)CCOC [CBK146018]	94.2
Cn1cc(-c2nc(C(=O)NCc3ccnc(N4CCCC4)c3)cs2)cn1 [CBK305666]	92.9
O=C1CCCC2=C1C(c1ccccc1O)c1c([nH][nH]c1=O)N2 (stereo not drawn) [CBK288442]	90.2
CC(=O)NCCC(CN1CCOCC1)([N+](=O)[O-])[N+](=O)[O-] [CBK261338]	88.7
N#Cc1c2c(c(NCCN3CCCCC3)n3c1nc1ccccc13)CCC2 [CBK263140]	114
COc1cc(/C=N/NC(=O)c2ccncc2)ccc1OCc1ccc(Cl)cc1 [CBK262454]	114
CCc1cccc(C)c1NC(=O)CN(c1ccc(Br)c(C)c1)S(C)(=O)=O [CBK267935]	102
COc1cccc2c1cc(C(=O)NCc1cc(C3CC3)[nH]n1)n2C [CBK283282]	80.4
COCCn1c(SCc2c(C)nc3ccccn23)nc(C)c1C [CBK305212]	80.1
O=C(O)CSc1c(NC(=O)c2ccccc2)sc2c1CCCC2 [CBK261062]	97.5
COc1ccc(-c2cccc(Nc3cccnc3)n2)cc1OC [CBK037644]	94.6
Cc1cc(C(=O)Nc2nnc(Cc3ccccc3)s2)c2ccccc2n1 [CBK295607]	93.3
CCn1nc(C)c(-c2cncn2CCN(C)C2CCCC2)c1C [CBK281569]	109
O=C(CCSc1ccc(Cl)cc1)Nc1ccc(S(=O)(=O)N2CCOCC2)cc1 [CBK264133]	95.5
O=C(O)c1[nH]c2ccccc2c1C(c1cccs1)c1c(C(=O)O)[nH]c2ccccc12 [CBK267786]	118
c1cncc(-c2nccnc2N2CCN(c3ccncc3)CC2)c1 [CBK036965]	86.4
COC(=O)c1ccc(NC(=S)NC(=O)c2cncc(Br)c2)cc1 [CBK099257]	87.9
COc1ccc([C@@]23CCC(CC(=O)O)C[C@@H]2N(C)CC3)cc1OC (stereo partly drawn) [CBK045765A]	107
C=CCn1c(C)c(CN2CCc3nc(C)[nH]c(=O)c3C2)c2ccccc21 [CBK282375]	97.3
Cc1ccc(C(=O)Nc2cccc(-c3cn4cccnc4n3)c2)cc1 [CBK287503]	93.8
Fc1ccc(CCN2CCC(Oc3cncc(OCc4cccnc4)n3)C2)cc1 (stereo not drawn) [CBK084469]	97.8

Compound	viability at 28.5 h, 10 µM [%]
CCN(CC(=O)NC(C)(C)C)Cc1nc(-c2cccc(Br)c2)no1 [CBK304230]	102
COc1ccc(N2CCN(CC(O)COc3ccc4c(C)cc(=O)oc4c3)CC2)cc1 (stereo not drawn) [CBK269847]	86.5
CC1CCN(S(=O)(=O)c2ccc(C(=O)N3CCC(C(=O)O)CC3)cc2)CC1 [CBK297097]	105
CCN(Cc1ccncc1)C(=O)NCCOc1ccccc1 [CBK155148]	100
CCOc1cc(/C=C2/NC(=O)N(c3ccccc3)C2=O)cc(Cl)c1OCc1cccc(C(=O)O)c1 [CBK265160]	92
O=C(CCS(=O)(=O)c1ccccc1)Nc1cncc(OC2CCNCC2)n1 [CBK028438T]	94.1
FC(F)(F)c1cccc(Nc2cncc(-c3cccs3)n2)c1 [CBK065750]	125
C/C(C(=O)O)=C(/C)C(=O)N1CCC2(C1)NCCc1c2[nH]c2ccccc12 (stereo not drawn) [CBK046995]	100
CCCc1cc(C(=O)OC)c(NC(=O)C2CC=CCC2C(=O)O)s1 (stereo not drawn) [CBK265397]	117
O=C(CCCc1c[nH]c2ccccc12)N1CCn2c(nnc2C2CC2)C1 [CBK283689]	96.6
O=C(CSc1nc2ccccc2c(=O)[nH]1)Nc1ccc(Cl)c(C(=O)O)c1 [CBK268246]	103
CNC(=S)N(CCS(=O)(=O)c1ccc(Cl)cc1)Cc1cccs1 [CBK006431]	97.5
CC(=O)Oc1ccc(-c2cccc(C(=O)NCC(=O)O)c2)cc1 [CBK263828]	86.9
COc1ccccc1N1CCN(/N=C\c2ccccc2OCC(=O)O)CC1 [CBK263173C]	93.5
CCOC(=O)CN1CCC(Oc2cncc(OCc3ccc(Cl)c(Cl)c3)n2)C1 (stereo not drawn) [CBK084432]	91.7
COc1ccc(Oc2nccnc2N2CCN(Cc3ccc(Cl)cc3)CC2)cc1OC [CBK083041T]	87.3
Cc1cc(C[C@@H]2COC[C@H]2NCc2c(F)cccc2Cl)on1 [CBK282994]	83.4
CCC(C)c1ccccc1NC(=O)c1cc(=O)[nH]c2ccccc12 (stereo not drawn) [CBK297516]	89.6
O=C(O)CC1(CC(=O)N2CCN(C(c3ccccc3)c3ccccc3)CC2)CCCC1 [CBK086174]	98.7
Cc1ccc(S(=O)(=O)N2CCOCC2)cc1C(=O)NCCc1ccccc1 [CBK269658]	99
COc1ccccc1CCCNC(=O)c1csc(C(C)=O)c1 [CBK282513]	98.8
Nc1ccc(Oc2ccc3nc4c5cc(I)ccc5c5ccc(I)cc5c4nc3c2)cc1 [CBK261978]	87.6

Compound	viability at 28.5 h, 10 µM [%]
O=c1[nH]c(=O)c2cc(S(=O)(=O)Nc3cccc(CCc4ccccn4)c3)ccc2[nH]1 [CBK286389]	97.9
Cn1cc(CC(=O)Nc2nc3c(cc2C#N)CCCC3)cn1 [CBK306436]	90.7
CCc1nc2cc(NC(=O)c3csc(C(C)=O)c3)ccc2n1C [CBK282522]	105
COc1cc(CNc2nccnc2-c2cccc(CO)c2)cc(OC)c1 [CBK037403]	90.6
CS(=O)(=O)N1CC[C@H](c2nc3cc(Cl)ccc3o2)C1 [CBK289370]	86
Cn1c(=O)c2c(nc(CN3CCC(Cc4ccccc4)CC3)n2CCN2CCOCC2)n(C)c1=O [CBK269380]	100
Cc1cc(NS(=O)(=O)c2ccc3oc(=O)ccc3c2)n(C)n1 [CBK067250]	99.6
Cc1n[nH]c2c1C(c1ccc(C(=O)O)cc1)C1=C(COC1=O)N2 (stereo not drawn) [CBK286546]	94.7
CCOC(=O)CSc1nc(C)cc(Oc2ccc(=O)n(C)n2)n1 [CBK269476]	101
Cc1ccc(N2C(=O)/C(=C/c3ccc(O)c(O)c3)SC2=S)cc1C [CBK262756]	76.8
O=C(Nc1ccc(S(=O)(=O)NCCc2ccccc2)cc1)c1ccncc1 [CBK268172]	90.3
CCc1nc2c(OCc3ccc(Cl)cc3)cccn2c1N(C=O)CC(=O)N(C)C [CBK147518]	96.4
O=C(c1ccncc1)c1ccc(N2CCN(C3CC(=O)N(Cc4cccs4)C3=O)CC2)cc1 (stereo not drawn) [CBK269074]	94.6
Cc1ccc(Cl)cc1NC(=O)C1CC(=O)N(Cc2ccccn2)C1 (stereo not drawn) [CBK305561]	101
COc1ccc(-n2c(SCC(=O)c3ccccc3)nc(O)c(Cc3ccccc3)c2=O)cc1 [CBK263398]	97.7
CC(C)NC(=O)NC[C@H]1C[C@@H]2CCN1C[C@@H]2c1cc(-c2ccc(F)cc2)nn1C [CBK289111]	88.5
O=C1NC(=O)C(CCCCN2CCCC3(CCN(C(=O)Cc4c[nH]c5ccccc45)C3)C2)N1 (stereo not drawn) [CBK132059]	83.8
CCCC(=O)N1CCCCC1c1c(-c2onc(C)c2C)cnn1C (stereo not drawn) [CBK282259]	94.7
COCC1CCCN(S(=O)(=O)c2cnc3ccsc3c2)C1 (stereo not drawn) [CBK306397]	66.6
O=C(O)CCSc1nc2ccccc2n1CCOc1ccccc1 [CBK262555]	95.9
Cc1ccc(CCC2CCN(C(=O)c3ccc(O)nc3)CC2)cc1 [CBK296724]	94.4
CC(C)(CO)CNc1nc(-c2cccnc2)cnc1N [CBK063475]	100

Compound	viability at 28.5 h, 10 µM [%]
O=C(CCC(=O)Nc1ccc(I)cc1)N/N=C/c1ccc(Br)cc1 [CBK262010]	88.9
CCCCCCOC(=O)c1ccc2c(c1)C(=O)N(c1cccc(N)c1)C2=O [CBK157034]	106
Cc1ccc2oc(CN3CCn4cnnc4C3)c(C)c2c1 [CBK283075]	109
COc1ccccc1-c1coc2cc(OC(=O)c3c(C)oc4ccc(OC(C)=O)cc34)ccc2c1=O [CBK265191]	92
Cc1cccc(NC(=O)COc2ccccc2CNc2ccc(Br)cc2)c1 [CBK266534]	101
CCOC(=O)c1cnn(C2CCCN(c3ccc(C#N)nc3)C2)c1 (stereo not drawn) [CBK306458]	113
c1ccc(-c2nnc(-c3ccco3)c(-c3ccco3)n2)cc1 [CBK286196]	83.7
CN(C)CC1(O)C2CN3CCN(C2)CC1(c1ccccc1)C3 (stereo not drawn) [CBK263029]	97.5
CCOc1ccc(-n2c(SC/C=C/c3ccccc3)nnc2-c2cccnc2)cc1 [CBK266222]	106
O=C(Cn1cncn1)c1ccc2c(c1)CCO2 [CBK020087]	93.5
CC(C)(C)OC(=O)NCCNC(=O)Nc1ccccc1C(F)(F)F [CBK056940]	98.6
CC(C)Cn1c(=O)[nH]c2ncc(-c3ccc(O)cc3)nc21 [CBK065011]	105
CC(NC(=O)C1C=CCN1S(C)(=O)=O)c1ccc2c(c1)CCC2 (stereo not drawn) [CBK282667]	88.7
CC(C)C(=O)Nc1ccc2ccc(-c3ccc(C(C)(C)C)cc3)nc2n1 [CBK073669]	106
CSc1ncc(Cl)c(C(=O)Nc2ccc(S(=O)(=O)N3CCOCC3)cc2)n1 [CBK268775]	106
CN(C)CCN(C)c1cc(-c2ccc(F)c(Cl)c2)nc2ccnn12 [CBK037230]	90.4
CC(NC(=O)c1cccc2ccccc12)c1ccc2ccccc2c1 (stereo not drawn) [CBK267646]	90.1
COCCN1C(=O)c2ccc(C(=O)c3ccc4c(c3)C(=O)N(CCOC)C4=O)cc2C1=O [CBK268641]	113
O=C(c1ccncc1)N1CCc2cc(S(=O)(=O)N3CCOCC3)ccc21 [CBK287800]	92.8
C/C(=N\NC(=O)c1ccccc1I)c1cccc(N)c1 [CBK260935]	107
Fc1ccc(-c2noc(C3CCN(CCc4ccccc4)CC3)n2)cc1 [CBK051457]	91.3
